According to publication doi:10.1101/2024.08.13.607848, “Bibacillin 1: A two-component lantibiotic from Bacillus thuringiensis” (bioRxiv, 2024):

Tests used:
[1] = SDS-PAGE analysis of oligomerization; assay type: physicochemical; details: in the presence of SDS
Description: Using agar plates seeded with E. faecalis pXL110 and the colorimetric LacZ substrate X-gal, LacZ expression was visualized. Consistent with previous reports,[43] […] Comparing the structures of CylLS” and Bib1β (Fig. 1A and 2B), we speculated that the presence of Ser16 in Bib1β rather than the hydrophobic residues present in CylLS” in this region might interfere with CylR1 binding possibly due to hydrophobic mismatching. […] To determine whether bibacillin 1 could quorum sense through an aggregation mechanism, the aggregation propensity of bibacillin 1 was analyzed using SDS-PAGE and dynamic light scattering (DLS). […] Since SDS can influence aggregation, the aggregation of bibacillin 1 was further investigated under SDS-free conditions using DLS (Fig. 6B). Bib1α exists in solution as aggregates that are 159 nm in diameter on average (PDI = 0.224) and Bib1β forms aggregates that are 291 nm in diameter on average (PDI = 0.384). […] Confirmation of this hypothesis will require in vitro studies with Bib1R1/R2.

[2] = tested on: rabbit erythrocytes; assay type: cell-based; details: total peptide concentration 2 µM; 1 h at 37 °C; hemoglobin release, absorbance at 415 nm; mixture 1:1
Method: Solution phase hemolysis assays were conducted as described previously.[35]
Fig. S2. […] A) Hemoglobin release […]
erythrocytes were treated with 0.03% v/v triton X-100. Negative control contained only buffer. A total peptide concentration of 2 µM was used in each case. B) Extent of hemolysis after treating freshly washed rabbit erythrocytes with 1:1 of CylLS”:CylLL” at 37 ̊C for 1 h. Data was fit to a […]
(1 picture or pasted object on this page, not shown here)

[3] = In vitro pore formation assay, pyranine-encapsulated liposomes; details: total peptide concentration 5 μM; DOPC liposomes containing or lacking 0.1 mol% lipid II; mixture 1:1
Method: To investigate the lipid II-dependence of the pore formation activity of bibacillin 1, pyranine-encapsulated liposomes were prepared containing or lacking lipid II and pore formation was monitored via pH-dependent pyranine fluorescence.[70]
This assay was conducted as described elsewhere.[70]

[4] = tested on: Micrococcus luteus ATCC 4698; assay: Agar diffusion assay using bacteria; assay type: cell-based
Method: Fig. 4. […] Cytolysin was used as a positive control.
Overnight cultures of bacteria were prepared according to Table S1. The OD600 of each culture was determined and adjusted to a value of 1 using the appropriate growth media. Molten growth media containing 0.7% agar was cooled to 50 °C and inoculated with 50 μL of adjusted overnight culture for every 5 mL of molten growth media. The inoculated molten growth media was immediately poured onto a pre-warmed agar (2%) plate prepared using the same media. The plate was allowed to set for 30 min at room temperature before adding 3 μL of peptide stock diluted in PBS to 100 μM. The deposited peptide solutions were allowed to stand on the agar plate for 30 min before incubation for 16–36 h at the optimum growth temperature until the desired cell density was achieved.

SMILES | Oligomeric state by SDS-PAGE [1] | Hemolysis in solution phase assay [2] | Pore formation activity in liposomes, pyranine fluorescence [3] | Growth inhibition in agar diffusion assay [4]
C=C(NC(=O)[C@H](C)NC(=O)[C@@H]1CS[C@H](C)[C@H](N)C(=O)NC(=C)C(=O)N2CCC[C@H]2C(=O)N[C@@H](C)C(=O)N1)C(=O)N[C@@H](C)C(=O)N[C@@H](CCSC)C(=O)N[C@@H](CC(C)C)C(=O)N[C@@H](Cc1ccc(O)cc1)C(=O)N[C@@H](CC(C)C)C(=O)N[C@@H](CCC(N)=O)C(=O)NCC(=O)N[C@H](C(=O)NC(=CC)C(=O)N[C@H](C(=O)NC(=C)C(=O)N[C@@H](CC(C)C)C(=O)NCC(=O)N[C@@H](CC(C)C)C(=O)N[C@@H]1CSC[C@@H](C(=O)O)NC(=O)[C@H](Cc2c[nH]cn2)NC(=O)[C@H](CCSC)NC(=O)[C@H](CCCNC(=N)N)NC1=O)C(C)C)C(C)C [Bib1α] | oligomeric in the presence of SDS | did not induce hemolysis | pore formation activity that was somewhat enhanced by the addition of lipid II | weak individual activity
CC=C1NC(=O)[C@@H](N)[C@@H](C)SC[C@@H](C(=O)N[C@@H](C)C(=O)N[C@H](C(=O)NCC(=O)NCC(=O)NCC(=O)N[C@@H](CC(C)C)C(=O)N[C@@H](C)C(=O)N[C@@H](CC(C)C)C(=O)NCC(=O)N[C@@H](Cc2ccccc2)C(=O)N[C@@H](CO)C(=O)N[C@H](C(=O)N[C@@H]2CSC[C@@H](C(=O)O)NC(=O)[C@H](Cc3ccc(O)cc3)NC(=O)[C@H]([C@@H](C)CC)NC(=O)[C@H](CCCCN)NC2=O)[C@@H](C)CC)[C@@H](C)CC)NC(=O)[C@H](C(C)C)NC(=O)[C@@H]2CCCN2C1=O [Bib1β] | oligomeric in the presence of SDS | did not induce hemolysis | – | weak individual activity
